Data set [1] deals with T1, 5-HT6R (Homo sapiens, UniProt P50406). Briefly: Inhibition of 5-CT-induced cAMP production in 1321N1 cells (LANCE TR-FRET). Further details: host or cells: 1321N1 (frozen recombinant cells). As to conditions: 5-CT as agonist, mean ± SEM, three independent experiments. Format: cell-based. (In general: cAMP levels reflect the balance of adenylyl cyclase and phosphodiesterase activity.)

Data set [2] is described as follows: Metabolic stability in rat liver microsomes (RLM). The format is in vitro ADME. The following applies: for microsomal CLint at 20 µM / half-life at 20 µM: male, rat, rat liver microsomes, pH 7.4, protein concentration 0.5 mg/mL; for half-life at 20 µM: read-out: Metabolic Stability t1/2; for Metabolic Stability Major Metabolite: protein concentration 0.5 mg/mL. How it is done: Metabolic stability studies were performed according to reported protocols. […] All samples were analyzed in duplicate.

In data set [3] the target is T1, 5-HT6R. Briefly: Radioligand binding, [3H]-LSD displacement, HEK-293 cells. As to conditions: three independent binding experiments. Further details: expressed in transfected cells. As to the method:
All experiments were performed in HEK-293 cells, which stably express the human 5-HT1A, 5-HT6, 5-HT7b, and D2L receptors, or using CHO-K1 cells expressing human serotonin 5-HT2A receptor, following the previously reported procedures. For displacement studies, the following radioligands (PerkinElmer, USA) at given concentrations were used at: 2.5 nM [^3H]-8-OH-DPAT (135.2 Ci/ mmol); 1 nM [^3H]-ketanserin (53.4 Ci/mmol); 2 nM [^3H]-LSD (83.6 Ci/mmol); 0.8 nM [^3H]-5-CT (39.2 Ci/mmol) or 2.5 nM [^3H]-raclopride (76.0 Ci/mmol) for 5-HT1A, 5-HT2A, 5-HT6, 5-HT7b and D2L receptors, respectively. All tested compounds were evaluated in triplicate at 7 concentrations (10^−10–10^−4 M). The inhibition constants (Ki) were calculated from the Cheng–Prusoff equation [25]. A detailed description is reported in the Supporting Information.
All synthesized compounds were evaluated in ^3[H]-LSD competition binding experiments for their affinity for 5-HT6R expressed in HEK-293 cells (Table 1). Embedding the sulfonamide moiety into an unsubstituted isoindoline scaffold was sufficient to provide potent compounds 3a and 3e. […] This effect might result from the favorable localization of the bromine atom at the isoindoline fragment, which enabled compound 3k to adopt an optimal position in the receptor binding pocket via the formation of hydrophobic/steric interactions.
1. Procedure for radioligand binding assay
All experiments were carried out according to the previously published procedures. HEK293 cells stably expressing human 5-HT1A, 5-HT6, 5-HT7b and D2L receptors (prepared with the use of Lipofectamine 2000) or CHO-K1 cells with plasmid containing the sequence coding for the human serotonin 5-HT2A receptor (Perkin Elmer) were maintained at 37 °C in a humidified atmosphere containing 5% CO2 and grown in Dulbecco’s Modified Eagle’s Medium containing 10% dialyzed fetal bovine serum and 500 μg/ml G418 sulfate. For membrane preparation, cells were cultured in 150 cm2 flasks, grown to 90% confluence, washed twice with pre-warmed to 37 °C phosphate buffered saline (PBS) and centrifuged (200 × g) in PBS containing 0.1 mM EDTA and 1 mM dithiothreitol. Prior to membrane preparation, pellets were stored at –80 °C. Cell pellets were thawed and homogenized in 10 volumes of assay buffer using an Ultra Turrax tissue homogenizer and centrifuged twice at 35,000 × g for 15 min at 4 °C, with incubation for 15 min at 37 °C between the centrifugations. The composition of the assay buffers was experimentally selected to achieve the […]
5-HT1AR: 50 mM Tris HCl, 0.1 mM EDTA, 4 mM MgCl2, 10 μM pargyline and 0.1% ascorbate; 5-HT2AR: 50 mM Tris HCl, 0.1 mM EDTA, 4 mM MgCl2 and 0.1% ascorbate;
5-HT6R: 50 mM Tris HCl, 0.5 mM EDTA and 4 mM MgCl2; 5-HT7bR: 50 mM Tris HCl, 4 mM MgCl2, 10 μM pargyline and 0.1% ascorbate; D2LR: 50 mM Tris HCl, 1 mM EDTA, 4 mM MgCl2, 120 mM NaCl, 5 mM KCl, 1.5 mM CaCl2 and 0.1% ascorbate).
All assays were carried out in a total volume of 200 μL in 96-well plates for 1 h at 37 °C, except 5-HT1AR and 5-HT2AR which were incubated at room temperature and 27 °C, respectively.
The process of equilibration was terminated by rapid filtration through Unifilter plates with a 96-well cell harvester and radioactivity retained on the filters was quantified on a Microbeta plate reader (PerkinElmer, USA). For displacement studies the assay samples contained as radioligands (PerkinElmer, USA): 2.5 nM [3H]-8-OH-DPAT (135.2 Ci/ mmol) for 5-HT1AR; 1 nM [3H]-ketanserin (53.4 Ci/mmol) for 5-HT2AR; 2 nM [3H]-LSD (83.6 Ci/mmol) for 5-HT6R; 0.8 nM [3H]-5-CT (39.2 Ci/mmol) for 5-HT7R or 2.5 nM [3H]-raclopride (76.0 Ci/mmol) for D2LR. Non-specific binding was defined in the presence of 10 μM of 5-HT in 5-HT1AR and 5-HT7R binding experiments, 20 μM of mianserin for 5-HT2AR, 10 μM of methiothepine for 5-HT6R or 10 μM of haloperidol for D2LR bidning assays. Each compound was tested in triplicate at 7 concentrations (10-10–10-4 M). The inhibition constants (Ki) were calculated […]

The nature of data set [4]: Cytotoxicity, MTT test, C8-D1A. Format: cell-based. As to conditions: mouse, C8-D1A cells (mouse astrocytes). As to the method: Hepatotoxicity, neurotoxicity, and glial cytotoxicity were investigated using the following cellular models: human hepatocellular carcinoma (HepG2), human neuroblastoma (SHSY-5Y), and mouse astrocytes (C8-D1A), all from ATCC (American Type Culture Collection, Manassas, VA, USA). Cells were cultured in appropriate culture media recommended by ATCC supplemented with 10% fetal bovine serum (FBS; Gibco, Life Technologies, Carlsbad, CA, USA) and 1% antibiotic mixture (Gibco, Life Technologies, Carlsbad, CA, USA). Cells were cultured at standard conditions (5% CO2, 95% humidity, 37 °C). For cytotoxicity experiments, cells were seeded into 96 well plates at an initial density of 2000 cells/well. After overnight incubation, cells were treated with 3e, 3f, and 3g in a concentration range of 0.78–50 µM for 48 h; then, an MTT assay was performed as described previously. Briefly, following cell exposure, 10 µL of MTT reagent was added to each well. After the next 4 h, the medium was aspirated, and formazan produced in cells appeared as dark crystals in the bottom of the wells. Next, 100 µL DMSO was added to each well. Then, the optical density of the solution (OD) at 570 nm was determined on a plate reader (Spectra Max iD3, Molecular Devices, San Jose, CA, USA). The experiments were run three times in triplicates.
(In general: Tetrazolium dyes change colour on reduction, which living cells bring about.)

For data set [5], the target named is T2, human serotonin 5-HT2A receptor (Homo sapiens, UniProt P28223).
T2 construct: host or cells: CHO-K1
Briefly: Radioligand binding, [3H]-ketanserin displacement, CHO-K1 cells. As to conditions: mean ± SEM, three independent binding experiments; read-out: Ki [nM] 5-HT2AR.

Setting [6] is: Table 1, HEK293 cells, read-out: Ki [nM] ± SEM at the 5-HT6R.
Setting [7] is: Table 2, mean ± SEM, read-out: 5-HT6R Ki.

Where “and” joins values, the source holds several entries; their conditions need not be identical. Equal entries are not always repeated. Where two headings read alike, the source gives them in different places.

T2 sequence (P28223 whole entry): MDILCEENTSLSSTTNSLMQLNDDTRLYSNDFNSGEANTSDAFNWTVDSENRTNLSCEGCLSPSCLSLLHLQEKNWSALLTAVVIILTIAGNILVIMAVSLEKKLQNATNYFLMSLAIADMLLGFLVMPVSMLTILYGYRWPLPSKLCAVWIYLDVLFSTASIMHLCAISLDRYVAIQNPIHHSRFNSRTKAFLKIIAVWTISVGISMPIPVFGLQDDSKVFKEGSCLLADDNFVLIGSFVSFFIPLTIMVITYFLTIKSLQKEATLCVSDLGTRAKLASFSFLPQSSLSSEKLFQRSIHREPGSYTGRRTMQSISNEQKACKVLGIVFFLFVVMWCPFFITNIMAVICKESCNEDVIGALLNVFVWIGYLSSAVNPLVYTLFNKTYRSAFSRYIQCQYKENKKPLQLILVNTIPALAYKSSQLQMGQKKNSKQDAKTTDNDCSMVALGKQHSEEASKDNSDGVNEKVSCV
T1 sequence (P50406 whole entry): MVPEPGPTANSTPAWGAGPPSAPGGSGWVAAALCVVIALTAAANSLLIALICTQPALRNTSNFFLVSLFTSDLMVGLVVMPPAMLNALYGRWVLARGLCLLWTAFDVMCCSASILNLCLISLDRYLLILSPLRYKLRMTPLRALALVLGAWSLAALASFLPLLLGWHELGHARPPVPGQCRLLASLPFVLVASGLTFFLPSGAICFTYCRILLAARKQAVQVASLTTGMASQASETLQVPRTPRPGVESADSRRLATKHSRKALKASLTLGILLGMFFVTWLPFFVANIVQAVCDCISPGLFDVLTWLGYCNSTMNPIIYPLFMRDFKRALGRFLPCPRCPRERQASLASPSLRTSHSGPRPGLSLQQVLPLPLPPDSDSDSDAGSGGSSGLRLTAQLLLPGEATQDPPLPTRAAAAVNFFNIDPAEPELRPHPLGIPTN

In the case of `O=S(=O)(c1cccc(N2CCNCC2)c1)N1Cc2ccccc2C1` [3e, 2-{[3-(Piperazin-1-yl)phenyl]sulfonyl}isoindoline], on 5-HT6R [1], the Kb worked out at 0.7 ± 0.2 nM. Besides, in data set [2], the microsomal CLint at 20 µM came to 3.78 µL/min/mg, the half-life at 20 µM was 367 min and the “Metabolic Stability Major Metabolite” value was “not detected”. In addition, the Ki at 5-HT6R [3] (setting [6]) was under 5 nM. Besides, the Ki on 5-HT6R [3] (setting [7]) was found to be 2 ± 0.2 nM. The compound further yielded an IC50 at 48 h in data set [4] of over 50 µM. Also, in data set [5], the inhibition constant Ki was 128 ± 37 nM.

With `O=S(=O)(c1cccc(N2CCNCC2)c1)N1Cc2cccc(Cl)c2C1` [3f, 4-Chloro-2-{[3-(piperazin-1-yl)phenyl]sulfonyl}isoindoline], the Kb at 5-HT6R [1] turned out to be 3.5 ± 0.8 nM. For the same compound, the microsomal CLint at 20 µM in data set [2] amounted to 18 µL/min/mg. Besides, the half-life at 20 µM in data set [2] was 77 min. The “Metabolic Stability Major Metabolite” value in data set [2] is recorded as “hydroxylated”. The Ki is < 5 nM and 1 nM on 5-HT6R [3] (setting [6]); 1 ± 0.2 nM at 5-HT6R [3] (setting [7]); 170 ± 32 nM in data set [5]. Also, in data set [4], the IC50 at 48 h was over 50 µM.

On to `O=S(=O)(c1cccc(N2CCNCC2)c1)N1Cc2cccc(Br)c2C1` [3g, 4-Bromo-2-{[3-(piperazin-1-yl)phenyl]sulfonyl}isoindoline], for which, at 5-HT6R [1], the Kb stood at 1.6 ± 0.3 nM. Also, in data set [2], the intrinsic metabolic clearance (microsomal CLint) at 20 µM worked out at 14.7 µL/min/mg, the half-life at 20 µM stood at 94.4 min and the “Metabolic Stability Major Metabolite” value is recorded as “hydroxylated”. Further, the inhibitory constant (Ki) at 5-HT6R [3] (setting [6]) was < 5 nM and 1 nM. The Ki at 5-HT6R [3] (setting [7]) was found to be 1 ± 0.4 nM. Moreover, in data set [4], the 50% inhibitory concentration (IC50) at 48 h is over 50 µM. The inhibitory constant (Ki) in data set [5] was found to be 159 ± 25 nM.

The microsomal CLint is the rate of metabolic loss divided by the concentration. For orientation: Ki means a dissociation constant, usually derived from enzyme kinetics or from competition with a known ligand. In general, IC50 refers to the concentration that inhibits the measured activity by half.

These data come from PMC9855333, “1-(Arylsulfonyl-isoindol-2-yl)piperazines as 5-HT6R Antagonists: Mechanochemical Synthesis, In Vitro Pharmacological Properties and Glioprotective Activity” (Biomolecules, 2022).
